Results on 27 compounds are retold here after patent publication US20240262835A1, “PRMT5 INHIBITING COMPOUNDS AND USES THEREOF” (ANTENGENE DISCOVERY LIMITED, priority 2023, published 2024).

Some results are limits rather than exact numbers.

Data set [1] relates to HCT116 homozygous MTAP knockout cells. Description: HCT116 cell proliferation assay (CTG), MTAP knockout cells. It is filed as cell-based, human. The conditions noted are these: Cell Titer-Glo. On the procedure:
(§1) Control samples were analyzed in parallel.
(§2) On Day 0, 150 HCT116 parental or HCT116 homozygous MTAP knockout cells were seeded in 96-well plates in McCoy's 5A medium containing 10% fetal bovine serum and pen/strep. And the cells were incubated overnight at 37° C. and 5% CO2.
(§3) On Day 1, cells were treated with 9-point serial dilution of compound, using a top concentration of 50 μM, 1:5 serial dilution steps and, a DMSO-only control. And cells were incubated for 6 days.
(§4) On Day 7, cell viability was measured using a CTG assay Kit (Cell Titer-Glo; Promega, catalog no.: G7573) in accordance with the manufacturer's instructions. Assays plates were read on a EnVision™ Multilabel Reader using the Ultra-Sensitive luminescence model. The data were analyzed by GraphPad Prism 5.0 software, and the dose-effect curve was obtained by fitting the data using nonlinear S-curve regression, from which the IC50 value was calculated.

Another data set deals with PRMT5/MEP50 (Homo sapiens (Human), UniProt O14744). Description: MTase-Glo methyl transferase assay (PRMT5 inhibition). It is filed as biochemical. The conditions noted are these: 50 nM PRMT5/MEP50, 25 μM SAM, 5 μM Histone H4 peptide (1-21), read-out: IC50 for PRMT5 inhibiting. On the procedure:
The PRMT5 inhibitory activity of test compounds was determined using the MTase-Glo™ assay (Promega), which monitors the product (S-adenosyl homocysteine or SAH) of methyltransferase reactions. The PRMT5 MTase-Glo assays were conducted in a 384-well white ProxiPlate (PerkinElmer, catalog no.: 6008280) in a total volume of 12 μL. The PRMT5 enzymatic reaction (in 4 μL) contained 50 nM PRMT5/MEP50 (Reaction Biology Corp, catalog no.: HMT-22-148), 25 μM S-adenosyl methionine (SAM, Promega), 5 μM Histone H4 peptide (1-21) (BPS Bioscience, catalog no.: 52018-2) and five-fold serially diluted compounds in a reaction buffer of 50 mM Tris (pH 8.0), 50 mM NaCl, 0.01% Tween 20, 0.01% BSA, and 1 mM DTT. The test compounds were pre-incubated with PRMT5/MEP50 and Histone H4 peptide for 20 minutes at room temperature before the addition of SAM to initiate the PRMT5 reaction. The reaction was allowed to proceed for 1 hour at 37° C. and was terminated by 2 μL of 3× MTase-Glo™ Reagent (Promega) and 150 μM EPZ015666 (Selleck, catalog no.: 1616391-65-1). After a 30-minute incubation at room temperature, 6 μL of MTase-Glo™ Detection Solution (Promega) was added and the plate was incubated at room temperature for an additional 30 minutes. The light signal corresponding to the amount of SAH produced by the PRMT5 reaction was subsequently measured using an Envision multimode reader (PerkinElmer). IC50 and Ki values were obtained by analyzing dose-response curves using GraphPad Prism.

Data set [2] relates to HCT116 parental (wild type) cells. Kind of data set: HCT116 cell proliferation assay (CTG), parental cells. It is filed as cell-based, human. Particulars: Cell Titer-Glo. The protocol: as §1, §2, §3, §4
The target of data set [3] is hERG potassium ion channel (Homo sapiens (Human), UniProt Q12809). Description: hERG potassium ion channel inhibition assay (automated patch-clamp, CHO-hERG cells). It is filed as cell-based. The conditions noted are these: Qpatch, highest test concentration 40.00 μM. On the procedure:
Drug-hERG interaction was measured by automated patch-clamp methods, with cisapride as positive control.
1.1 CHO-hERG cells were cultured in 175 cm^2 culture bottle. After the cell density grew to 60-80%, the culture medium was removed, washed with 7 mL of phosphate buffered saline (PBS), and then digested with 3 mL Detachin.
1.2 After the digestion was complete, 7 mL culture solution was added for neutralization, and then centrifuged, the clear solution was sucked, and 5 mL culture solution was added for re-suspension to ensure the cell density was 2˜5×10^6/mL.
The process of single-cell high-impedance sealing and whole-cell pattern formation was all automatically completed by Qpatch instrument. After obtaining whole-cell recording mode, the cell was pinching at −80 millivolts. Before giving a 5-second +40 millivolt depolarization stimulus, a 50-millisecond pre-voltage of −50 millivolts was given first, and then repolarized to −50 millivolts for 5 seconds. Go back to −80 millivolts. This voltage stimulation was applied every 15 seconds, recorded for 2 minutes, then extracellular fluid was given and recorded for 5 minutes, and then the administration process began. The concentration of test compound was given from the lowest test concentration for 2.5 minutes per test concentration. After continuous administration of all concentrations, the positive control 3 μM cisapride was given. At least 2 cells were tested for each concentration (n≥2).
4.1 The compound mother liquor was diluted with DMSO, and 10 μL compound stock solution was added to 20 μL DMSO solution, which was continuously 3-fold diluted to 6 DMSO-concentrations.
4.2 4 μL of test compounds in 6 DMSO-concentrations were added to 396 μL extracellular solution and were 100-fold diluted to 6 intermediate concentrations. Then, 80 μL of test compounds in 6 intermediate concentrations were added to 320 μL extracellular solution and were 5-fold diluted to the final concentration to be tested.
4.3 The highest test concentration was 40.00 μM, and six test concentrations were 40.00, 13.33, 4.44, 1.48, 0.49, 0.16 μM, respectively.
4.5 Entire dilution process for test compound preparation was performed by Bravo instrument.
The experimental data were analyzed by GraphPad Prism 5.0 software.

[4] abbreviates: Homo sapiens, HCT-116, 6 days treatment.

PRMT5/MEP50, sequence (O14744 whole entry): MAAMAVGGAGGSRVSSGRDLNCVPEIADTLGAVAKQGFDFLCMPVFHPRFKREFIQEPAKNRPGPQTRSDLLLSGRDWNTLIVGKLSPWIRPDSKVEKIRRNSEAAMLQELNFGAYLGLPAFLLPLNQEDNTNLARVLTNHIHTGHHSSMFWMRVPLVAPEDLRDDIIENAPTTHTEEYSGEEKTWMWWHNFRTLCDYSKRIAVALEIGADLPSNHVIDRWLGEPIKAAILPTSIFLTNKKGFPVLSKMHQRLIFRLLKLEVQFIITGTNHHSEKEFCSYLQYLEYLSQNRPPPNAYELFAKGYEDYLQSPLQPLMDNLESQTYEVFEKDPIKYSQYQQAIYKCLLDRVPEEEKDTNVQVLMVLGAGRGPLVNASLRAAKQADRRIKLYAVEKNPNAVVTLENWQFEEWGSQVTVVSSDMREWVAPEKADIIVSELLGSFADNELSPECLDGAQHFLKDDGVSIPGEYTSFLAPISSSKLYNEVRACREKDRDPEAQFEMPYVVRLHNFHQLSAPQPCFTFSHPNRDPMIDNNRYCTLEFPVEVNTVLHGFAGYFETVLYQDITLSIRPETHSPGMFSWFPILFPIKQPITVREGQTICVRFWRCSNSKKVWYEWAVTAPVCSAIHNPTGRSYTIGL
PRMT5/MEP50, sequence (Q9BQA1 whole entry partner): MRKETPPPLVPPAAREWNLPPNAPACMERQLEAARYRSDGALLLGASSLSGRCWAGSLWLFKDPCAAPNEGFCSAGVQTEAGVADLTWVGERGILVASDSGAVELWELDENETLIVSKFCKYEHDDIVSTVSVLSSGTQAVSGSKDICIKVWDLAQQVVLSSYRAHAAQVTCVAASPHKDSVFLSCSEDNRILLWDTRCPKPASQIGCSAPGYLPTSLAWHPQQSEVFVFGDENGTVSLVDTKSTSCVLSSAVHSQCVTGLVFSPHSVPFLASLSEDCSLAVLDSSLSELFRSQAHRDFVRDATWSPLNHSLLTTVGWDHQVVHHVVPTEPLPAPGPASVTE
hERG potassium ion channel, sequence (Q12809 whole entry): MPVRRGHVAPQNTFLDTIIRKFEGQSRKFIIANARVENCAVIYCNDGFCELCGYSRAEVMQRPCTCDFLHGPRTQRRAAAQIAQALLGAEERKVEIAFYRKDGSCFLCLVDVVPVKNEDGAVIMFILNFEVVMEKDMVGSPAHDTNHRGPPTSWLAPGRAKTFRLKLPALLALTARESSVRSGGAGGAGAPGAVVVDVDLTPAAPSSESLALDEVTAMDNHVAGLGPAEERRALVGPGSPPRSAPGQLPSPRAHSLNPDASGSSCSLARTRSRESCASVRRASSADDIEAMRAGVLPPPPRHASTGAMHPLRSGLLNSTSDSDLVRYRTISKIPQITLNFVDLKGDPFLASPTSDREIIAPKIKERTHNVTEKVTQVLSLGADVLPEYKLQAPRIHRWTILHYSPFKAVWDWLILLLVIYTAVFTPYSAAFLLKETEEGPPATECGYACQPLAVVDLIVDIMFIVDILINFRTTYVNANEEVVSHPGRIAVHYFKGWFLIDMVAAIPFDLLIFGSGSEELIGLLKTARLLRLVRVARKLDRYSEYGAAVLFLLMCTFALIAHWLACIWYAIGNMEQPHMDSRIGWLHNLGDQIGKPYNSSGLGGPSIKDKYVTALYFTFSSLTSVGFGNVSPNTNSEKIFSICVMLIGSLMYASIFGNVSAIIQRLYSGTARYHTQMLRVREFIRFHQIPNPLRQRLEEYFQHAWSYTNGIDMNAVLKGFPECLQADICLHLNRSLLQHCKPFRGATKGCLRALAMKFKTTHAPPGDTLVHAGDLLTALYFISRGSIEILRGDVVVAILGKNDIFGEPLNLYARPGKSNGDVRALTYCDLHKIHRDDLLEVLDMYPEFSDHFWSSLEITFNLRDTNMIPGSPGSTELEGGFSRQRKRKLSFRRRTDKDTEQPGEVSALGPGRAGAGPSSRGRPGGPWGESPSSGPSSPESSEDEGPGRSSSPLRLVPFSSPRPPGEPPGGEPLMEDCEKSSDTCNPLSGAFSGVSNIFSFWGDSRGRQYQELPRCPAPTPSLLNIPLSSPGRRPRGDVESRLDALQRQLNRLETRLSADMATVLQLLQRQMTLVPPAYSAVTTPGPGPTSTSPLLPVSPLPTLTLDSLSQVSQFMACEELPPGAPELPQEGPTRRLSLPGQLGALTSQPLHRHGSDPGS

What is called IC50 is the concentration at which inhibition is half-maximal. In the case of `CN(C(=O)c1ccc2nc(N)c3cncn3c2c1)C1COc2cc(C(F)(F)F)ncc21` (stereo not shown) [Compound 32], the IC50 in data set [1] (setting [4]) turned out to be 286 nM; on PRMT5/MEP50 it was 25 nM; in data set [2] (setting [4]), 8090 nM.
For `[2H]C([2H])([2H])N(C(=O)c1cc2c(cn1)nc(N)c1cncn12)C1COc2c1ccc(C(F)(F)F)c2F` (stereo not shown) [Compound 34] the same measures were 364 nM, 70 nM and 14000 nM.
In the case of `[2H]C([2H])([2H])N(C(=O)c1cc2c(cn1)nc(N)c1cncn12)C1COc2cc(C(F)(F)F)cc(F)c21` (stereo not shown) [Compound 36], the IC50 in data set [1] (setting [4]) came out at 110 nM; on PRMT5/MEP50 it was 53 nM; in data set [2] (setting [4]), 9620 nM.
For `C[C@H](c1ncccn1)N(Cc1ccc(C(F)(F)F)cn1)C(=O)c1cc2c(cc1F)nc(N)c1cncn12` [Compound 6] the same measures were 17 nM, 36 nM and 230 nM.
Take `C[C@H](c1ncccn1)N(Cc1ccc(C(F)(F)F)cn1)C(=O)c1ccc2nc(N)n3cncc3c2c1` [Compound 5]: the IC50 was found to be 138 nM in data set [1] (setting [4]), 26 nM on PRMT5/MEP50 and 1580 nM in data set [2] (setting [4]).
Take `CN(C(=O)c1cc2c(cn1)nc(N)c1cncn12)C1CC(F)(F)c2cc(C(F)(F)F)ccc21` (stereo not shown) [Compound 25]: the IC50 at PRMT5/MEP50 stood at 167 nM.
Turning to `CN(C(=O)c1cc2c(cn1)nc(N)c1cncn12)C1COc2cc(C(F)(F)F)ccc21` (stereo not shown) [Compound 22], the IC50 at PRMT5/MEP50 amounted to 1150 nM.
For the compound `CN(C(=O)c1cc2c(cn1)nc(N)c1cncn12)C1COc2cc(C(F)(F)F)ccc21` (stereo not shown) [Compound 20], the IC50 on PRMT5/MEP50 came to 455 nM.
As to `CN(C(=O)c1ccc2nc(N)c3cncn3c2c1)C1COCc2cc(C(F)(F)F)ccc21` (stereo not shown) [Compound 23], the IC50 in data set [1] (setting [4]) is 40 nM; at PRMT5/MEP50, 31 nM; in data set [2] (setting [4]), 5350 nM.
For the compound `CN(C(=O)c1ccc2nc(N)c3cncn3c2c1)C1COc2cc(C(F)(F)F)ccc21` (stereo not shown) [Compound 15], the IC50 is 37 nM in data set [1] (6 days treatment), 16 nM on PRMT5/MEP50, 5340 nM in data set [2] (6 days treatment) and 5580 nM in data set [3].
As to `CN(C(=O)c1cc2c(cn1)nc(N)c1cncn12)C1COc2cc(C(F)(F)F)cnc21` (stereo not shown) [Compound 31], the results for the IC50 (in data set [1] (setting [4]); on PRMT5/MEP50; in data set [2] (setting [4])) were 1500 nM, 96 nM and 9580 nM, respectively.
For `[2H]C([2H])([2H])N(C(=O)c1ccc2nc(N)c3cncn3c2c1)C1COc2cc(OC(F)F)ccc21` (stereo not shown) [Compound 37] the same measures were 234 nM, 29 nM and 13800 nM.
For `CN(C(=O)c1ccc2nc(N)c3cncn3c2c1)C1COc2nc(C(F)(F)F)ccc21` (stereo not shown) [Compound 28], the results for the IC50 (in data set [1] (setting [4]); at PRMT5/MEP50; in data set [2] (setting [4])) were 483 nM, 37 nM and more than 50000 nM, respectively.
In the case of `CN(C(=O)c1cc2c(cn1)nc(N)c1cncn12)C1COc2cc(C(F)(F)F)ncc21` (stereo not shown) [Compound 33], the figures for the IC50 (in data set [1] (setting [4]); at PRMT5/MEP50; in data set [2] (setting [4])) were 980 nM, 51 nM and 18000 nM, respectively.
Taken in the same sequence, the figures for `Cn1ncc(-c2ccc3c(c2)nc(N)c2cncn23)c1-c1c(F)c(Cl)cc(OC2CC2)c1C#N` [Compound 2] were 158 nM, 45 nM and 5720 nM.
Taken in the same sequence, the figures for `Cn1ncc(-c2ccc3c(c2)nc(N)c2cncn23)c1-c1c(F)cc2ccccc2c1C#N` [Compound 1] were 73 nM, 45 nM and 4360 nM.
Consider `CN(C(=O)c1ccc2nc(N)c3cncn3c2c1)C1COc2cc(C(F)(F)F)ccc21` (stereo not shown) [Compound 16], for which the IC50 at PRMT5/MEP50 stood at 231 nM.
As for `C[C@H](c1ncccn1)N(Cc1ccc(C(F)(F)F)cn1)C(=O)c1cc2c(cn1)nc(N)c1cncn12` [Compound 10], the results for the IC50 (in data set [1] (setting [4]); at PRMT5/MEP50; in data set [2] (setting [4])) were 33 nM, 54 nM and 495 nM, respectively.
Taken in the same sequence, the figures for `[2H]C([2H])([2H])N(C(=O)c1cc2c(cn1)nc(N)c1cncn12)C1COc2cc(C(F)(F)F)c(F)cc21` (stereo not shown) [Compound 35] were 70 nM, 87 nM and 3210 nM.
In the case of `CN(C(=O)c1cnc2nc(N)c3cncn3c2c1)[C@@H]1COc2cc(C(F)(F)F)ccc21` [Compound 13], the IC50 in data set [1] (setting [4]) was determined as 181 nM; on PRMT5/MEP50 it was 40 nM; in data set [2] (setting [4]) it was 4570 nM.
Taken in the same sequence, the figures for `C[C@H]1CC[C@H](c2ccc3c(c2)CCC(=O)N3)N(C(=O)c2ccc3nc(N)c4cncn4c3c2)C1` [Compound 4] were 12 nM, 28 nM and 105 nM.
As to `CN(C(=O)c1cc2c(cn1)nc(N)c1cncn12)C1CC(F)(F)c2cc(C(F)(F)F)ccc21` (stereo not shown) [Compound 27], at PRMT5/MEP50, the IC50 stood at 1690 nM.
With `CN(C(=O)c1ccc2nc(N)c3cncn3c2c1)C1COc2cc(C(F)(F)F)ccc21` (stereo not shown) [Compound 11], the IC50 in data set [1] (setting [4]) came out at 64 nM; on PRMT5/MEP50 it was 51 nM; in data set [2] (setting [4]), 7680 nM.
In the case of `CN(C(=O)c1cc2c(cn1)nc(N)c1cncn12)C1COc2nc(C(F)(F)F)ccc21` (stereo not shown) [Compound 29], the IC50 turned out to be 377 nM in data set [1] (setting [4]), 37 nM at PRMT5/MEP50 and 21900 nM in data set [2] (setting [4]).
For `C[C@H](c1ncccn1)N(Cc1ccc(C(F)(F)F)cn1)C(=O)c1ccc2nc(N)c3cncn3c2c1` [Compound 3] the same measures were 156 nM, 24 nM and 16000 nM.
For `CN(C(=O)c1ccc2nc(N)c3cncn3c2c1)C1COc2cc(C(F)(F)F)cnc21` (stereo not shown) [Compound 30] the same measures were 4020 nM, 89 nM and more than 50000 nM.
On to `CN(C(=O)c1ccc2nc(N)c3cncn3c2c1)C1COc2cc(C(F)(F)F)ccc21` (stereo not shown) [Compound 18], for which the IC50 at PRMT5/MEP50 is 420 nM.
